Experimental data taken from patent publication US12365687B2 (Hoffmann-La Roche Inc., priority 2021, dated 2025).

What was measured:
[1] = target: human GABAA α1β3γ2 receptor (Homo sapiens (Human), UniProt P14867+P18507); assay: Radioligand binding assay for γ2-containing GABAA subtypes, [3H]Flumazenil competition (α1β3γ2); conditions: for γ2/γ1 Selectivity Ratio: Ki α1β3γ2 (nM)/Ki α2β2γ1 (nM); for LogSel: Log[Ki α1β3γ2 (nM)/Ki α2β2γ1 (nM)]
[2] = target: human GABAA α5β2γ1 receptor (Homo sapiens (Human), UniProt P31644+Q8N1C3); assay: Radioligand binding assay for γ1-containing GABAA subtypes, [3H]RO7239181 competition (α5β2γ1)
[3] = target: α2β2γ1 GABAA receptor subtype (Homo sapiens (Human), UniProt P47869+Q8N1C3); assay: Two-electrode voltage clamp electrophysiology in Xenopus oocytes expressing GABAA receptors (modulation of GABA EC20 current); format: cell-based; conditions: for Efficacy (GABA)%: % modulation of GABA EC20 = 100*(Fold increase-1), α2β2γ1 oocytes, compound at approx. 30-fold Ki; for Fold increase h-GABA-A α2β2γ1 oocyte @ 30-fold Ki: Xenopus oocytes expressing α2β2γ1, compound at approx. 30-fold its Ki α2β2γ1, GABA EC20 current
How it was run: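 Two-electrode voltage clamp at −80 mV, room temperature, 3-5 days after mRNA injection into oocytes. GABA applied at EC20 for 1.5 min, twice, with compound during second application; at least 3 oocytes per concentration. Efficacy = extremum of point-by-point current ratio, expressed as 100×(fold increase−1).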

[4] = target: human GABAA α2β2γ1 receptor (Homo sapiens (Human), UniProt P47869+Q8N1C3); assay: Radioligand binding assay for γ1-containing GABAA subtypes, [3H]RO7239181 competition (α2β2γ1)
[5] = Ki h-GABAA α2β2γ1, [3H]RO7239181 competition binding, human GABAA α2β2γ1
[6] = Ki h-GABAA α2β2γ1, displacement of [3H]RO7239181, membranes of HEK293F cells expressing human receptors, means of two determinations

SMILES | Ki [1] | γ2/γ1 Selectivity Ratio [1] | LogSel [1] | Ki [2] | Efficacy (GABA)% [3] | Fold increase h-GABA-A α2β2γ1 oocyte @ 30-fold Ki [3] | Ki [4, 5] | Ki [4, 6]
Cc1nc2n(n1)-c1ccc(Cl)c(Cl)c1C(c1ncccc1F)=N[C@H]2C [Example 84, (4S)-7,8-dichloro-6-(3-fluoro-2-pyridyl)-2,4-dimethyl-4H-[1,2,4]triazolo[1,5-a][1,4]benzodiazepine] | 977 nM | 34.4 | 1.54 | 2.8 nM | 175% | 2.75 | 28.4 nM | 28.4 nM
C[C@@H]1N=C(c2c(F)cccc2F)c2c(ccc(C(F)(F)F)c2Cl)-n2nc(C(=O)N3CC(C(F)F)C3)nc21 [Example 122, [(4S)-7-chloro-6-(2,6-difluorophenyl)-4-methyl-8-(trifluoromethyl)-4H-[1,2,4]triazolo[1,5-a][1,4]benzodiazepin-2-yl]-[3-(difluoromethyl)azetidin-1-yl]methanone] | 3050 nM | 287.8 | 2.46 | 3.82 nM | 91% | 1.91 | 10.6 nM | 10.6 nM
C[C@@H]1N=C(c2c(F)cccc2F)c2c(ccc(Cl)c2Cl)-n2nc(C(=O)N3CC4(COC4)C3)nc21 [Example 93, [(4S)-7,8-dichloro-6-(2,6-difluorophenyl)-4-methyl-4H-[1,2,4]triazolo[1,5-a][1,4]benzodiazepin-2-yl]-(2-oxa-6-azaspiro[3.3]heptan-6-yl)methanone] | 1290 nM | 390.6 | 2.59 | 2.25 nM | 75% | 1.75 | 3.3 nM | 3.3 nM
C[C@@H]1N=C(c2ncccc2F)c2c(ccc(Cl)c2Cl)-n2nc(C(=O)N3CC4(CCOCC4)C3)nc21 [Example 95, 7-oxa-2-azaspiro[3.5]nonan-2-yl-[(4S)-7,8-dichloro-6-(3-fluoro-2-pyridyl)-4-methyl-4H-[1,2,4]triazolo[1,5-a][1,4]benzodiazepin-2-yl]methanone] | 9440 nM | 198.4 | 2.30 | 20.2 nM | 126% | 2.26 | 47.6 nM | 47.6 nM
C[C@@H]1N=C(c2c(F)cccc2F)c2c(ccc(Cl)c2Cl)-n2nc(C(F)F)nc21 [Example 18] | 437 nM | 36.8 | 1.57 | 0.69 nM | 70% | 1.70 | 11.9 nM | 11.9 nM
C[C@@H]1N=C(c2ncccc2F)c2c(ccc(Cl)c2Cl)-n2nc(C(=O)N3CC4(CCCO4)C3)nc21 [Example 97, [(4S)-7,8-dichloro-6-(3-fluoro-2-pyridyl)-4-methyl-4H-[1,2,4]triazolo[1,5-a][1,4]benzodiazepin-2-yl]-(5-oxa-2-azaspiro[3.4]octan-2-yl)methanone] | 3590 nM | 242.0 | 2.38 | 8.64 nM | 95% | 1.95 | 14.8 nM | 14.8 nM
[2H]C([2H])([2H])OC1CN(C(=O)c2nc3n(n2)-c2ccc(Cl)c(Cl)c2C(c2c(F)cccc2F)=N[C@H]3C)C1 [Example 17, [(4S)-7,8-dichloro-6-(2,6-difluorophenyl)-4-methyl-4H-[1,2,4]triazolo[1,5-a][1,4]benzodiazepin-2-yl]-[3-(trideuteriomethoxy)azetidin-1-yl]methanone] | 579 nM | 223.3 | 2.35 | 1.3 nM | 44% | 1.44 | 2.6 nM | 2.59 nM
CC1CN(C(=O)c2nc3n(n2)-c2ccc(C(F)(F)F)c(Cl)c2C(c2ncccc2F)=N[C@H]3C)C1 [Example 135, [(4S)-7-chloro-6-(3-fluoro-2-pyridyl)-4-methyl-8-(trifluoromethyl)-4H-[1,2,4]triazolo[1,5-a][1,4]benzodiazepin-2-yl]-(3-methylazetidin-1-yl)methanone] | > 30000 nM | 592.7 | 2.77 | 9.35 nM | 118% | 2.18 | 50.6 nM | 50.6 nM
Fc1cccc(F)c1C1=NCc2nc(C(F)F)nn2-c2ccc(Cl)c(Cl)c21 [Example 33, 7,8-dichloro-2-(difluoromethyl)-6-(2,6-difluorophenyl)-4H-[1,2,4]triazolo[1,5-a][1,4]benzodiazepine] | 659 nM | 61.2 | 1.79 | 0.69 nM | 56% | 1.56 | 10.8 nM | 10.8 nM
C[C@@H]1N=C(c2c(F)cccc2F)c2c(ccc(Cl)c2Cl)-n2nc(C(=O)N3CC(C(F)F)C3)nc21 [Example 75, [3-(difluoromethyl)azetidin-1-yl]-[(4S)-7,8-dichloro-6-(2,6-difluorophenyl)-4-methyl-4H-[1,2,4]triazolo[1,5-a][1,4]benzodiazepin-2-yl]methanone] | 737 nM | 53.4 | 1.73 | 1.14 nM | 41% | 1.41 | 13.8 nM | 13.8 nM
Cc1c(C(=O)NC[C@@H](C)O)nc2n1-c1ccc(C(F)(F)F)c(Cl)c1C(c1ncccc1F)=N[C@H]2C [Example 162, (4S)-7-chloro-6-(3-fluoro-2-pyridyl)-1,4-dimethyl-N-[(2R)-2-hydroxypropyl]-8-(trifluoromethyl)-4H-imidazo[1,2-a][1,4]benzodiazepine-2-carboxamide] | 11700 nM | 210.1 | 2.32 | 13.6 nM | 148% | 2.48 | 54.4 nM | 55.7 nM
CC1CN(C(=O)c2nc3n(n2)-c2ccc(Cl)c(Cl)c2C(c2ncccc2F)=N[C@H]3C)C1 [Example 87, [(4S)-7,8-dichloro-6-(3-fluoro-2-pyridyl)-4-methyl-4H-[1,2,4]triazolo[1,5-a][1,4]benzodiazepin-2-yl]-(3-methylazetidin-1-yl)methanone] | 3290 nM | 59.7 | 1.78 | 5.5 nM | 84% | 1.84 | 55.2 nM | 55.2 nM
C[C@@H]1N=C(c2ncccc2F)c2c(ccc(C(F)(F)F)c2Cl)-n2nc(N3CCOC3=O)nc21 [Example 147, 3-[(4S)-7-chloro-6-(3-fluoro-2-pyridyl)-4-methyl-8-(trifluoromethyl)-4H-[1,2,4]triazolo[1,5-a][1,4]benzodiazepin-2-yl]oxazolidin-2-one] | 12600 nM | 255.4 | 2.41 | 7.44 nM | 113% | 2.13 | 49.3 nM | 49.4 nM
CO[C@@H]1CCN(C(=O)c2nc3n(n2)-c2ccc(Cl)c(Cl)c2C(c2c(F)cccc2F)=N[C@H]3C)C1 [Example 46, [(4S)-7,8-dichloro-6-(2,6-difluorophenyl)-4-methyl-4H-[1,2,4]triazolo[1,5-a][1,4]benzodiazepin-2-yl]-[(3R)-3-methoxypyrrolidin-1-yl]methanone] | 867 nM | 146.6 | 2.17 | 2.14 nM | 73% | 1.73 | 5.9 nM | 5.91 nM
C[C@@H]1N=C(c2c(F)cccc2F)c2c(ccc(Cl)c2Cl)-n2cc(C#N)nc21 [Example 74, (4S)-7,8-dichloro-6-(2,6-difluorophenyl)-4-methyl-4H-imidazo[1,2-a][1,4]benzodiazepine-2-carbonitrile] | 593 nM | 61.8 | 1.79 | 0.7 nM | 75% | 1.75 | 9.6 nM | 9.6 nM
COc1nc2n(n1)-c1ccc(Cl)c(Cl)c1C(c1c(F)cccc1F)=N[C@H]2C [Example 91, (4S)-7,8-dichloro-6-(2,6-difluorophenyl)-2-methoxy-4-methyl-4H-[1,2,4]triazolo[1,5-a][1,4]benzodiazepine] | 752 nM | 31.7 | 1.50 | 1.5 nM | 75% | 1.75 | 23.7 nM | 23.7 nM
